Values of other authors, collected in patent US10314922B2, “Trimaleimide linkers and uses thereof” (NewBio Therapeutics, Inc., priority 2015, dated 2019).

System: human carcinoma lines

In the case of `COc1cccc2c1C(=O)c1c(O)c3c(c(O)c1C2=O)C[C@@](O)(C(=O)CO)C[C@@H]3O[C@H]1C[C@H](N)[C@H](O)[C@H](C)O1` [doxorubicin, Doxorubicin], the IC50 is given as 100 to 200 nM.
